Assay results: PubChem BioAssay (NCI)
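All cell lines were grown in 96-well plates and treated with compound for 48 hours. Here, GI50 denotes the concentration required for 50% inhibition of growth. The concentration for full growth arrest is given as TGI.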

Tested on: OVCAR-3 ovarian
Assay: NCI-60 cell line screen, 48 h

Row | Structure (SMILES) | TGI | GI50
1 | Cc1ccc(NC(=O)C(=O)C(C(=O)c2ccc3ccccc3c2)C2OC(=O)c3ccccc32)cc1C (stereo not given) | 48.6 µM | –
2 | CCC[CH2][Sn]1([CH2]CCC)[O]N=C(c2ccccc2)C(c2ccccc2)[O]1 (stereo not given) | 2.84 µM | 1.42 µM
3 | O=S1(=O)C[C@H](O)[C@H](O)CS1 | > 100 µM | –
4 | N#Cc1nc(Nc2cccc3ccccc23)sc1N | > 100 µM | –
5 | CCN(CC)CC1CCCCCCCCCCC1=O (stereo not given) | > 100 µM | –
6 | O=C1C(Cl)N(c2ccc(Cl)cc2)C1c1c[nH]c2ccccc12 (stereo not given) | 36.1 µM | –

Tested on: SK-MEL-28 melanoma
Assay: NCI-60 cell line screen, 48 h

Row | Structure (SMILES) | TGI | GI50
7 | Cc1ccc(NC(=O)C(=O)C(C(=O)c2ccc3ccccc3c2)C2OC(=O)c3ccccc32)cc1C (stereo not given) | 26.9 µM | –
8 | CCC[CH2][Sn]1([CH2]CCC)[O]N=C(c2ccccc2)C(c2ccccc2)[O]1 (stereo not given) | 2.64 µM | 1.36 µM
9 | O=S1(=O)C[C@H](O)[C@H](O)CS1 | > 100 µM | –
10 | N#Cc1nc(Nc2cccc3ccccc23)sc1N | > 100 µM | –
11 | COc1cc([C@H]2Oc3cc(O)c4c(=O)cc(-c5ccccc5)oc4c3O[C@@H]2CO)ccc1O | > 100 µM | –
12 | CCN(CC)CC1CCCCCCCCCCC1=O (stereo not given) | > 100 µM | –
13 | O=C1C(Cl)N(c2ccc(Cl)cc2)C1c1c[nH]c2ccccc12 (stereo not given) | 96.5 µM | –

Tested on: SK-MEL-5 melanoma
Assay: NCI-60 cell line screen, 48 h

Row | Structure (SMILES) | TGI | GI50
14 | Cc1ccc(NC(=O)C(=O)C(C(=O)c2ccc3ccccc3c2)C2OC(=O)c3ccccc32)cc1C (stereo not given) | 30 µM | –
15 | CCC[CH2][Sn]1([CH2]CCC)[O]N=C(c2ccccc2)C(c2ccccc2)[O]1 (stereo not given) | 3.23 µM | 1.62 µM
16 | O=S1(=O)C[C@H](O)[C@H](O)CS1 | > 100 µM | –
17 | CCN(CC)CC1CCCCCCCCCCC1=O (stereo not given) | > 100 µM | –
18 | O=C1C(Cl)N(c2ccc(Cl)cc2)C1c1c[nH]c2ccccc12 (stereo not given) | 31 µM | –

Tested on: COLO 205 colon
Assay: NCI-60 cell line screen, 48 h

Row | Structure (SMILES) | TGI | GI50
19 | Cc1ccc(NC(=O)C(=O)C(C(=O)c2ccc3ccccc3c2)C2OC(=O)c3ccccc32)cc1C (stereo not given) | 32.6 µM | –
20 | CCC[CH2][Sn]1([CH2]CCC)[O]N=C(c2ccccc2)C(c2ccccc2)[O]1 (stereo not given) | 2.92 µM | 1.53 µM
21 | O=S1(=O)C[C@H](O)[C@H](O)CS1 | > 100 µM | –
22 | N#Cc1nc(Nc2cccc3ccccc23)sc1N | 81.5 µM | –
23 | COc1cc([C@H]2Oc3cc(O)c4c(=O)cc(-c5ccccc5)oc4c3O[C@@H]2CO)ccc1O | > 100 µM | –
24 | CCN(CC)CC1CCCCCCCCCCC1=O (stereo not given) | > 100 µM | –
25 | O=C1C(Cl)N(c2ccc(Cl)cc2)C1c1c[nH]c2ccccc12 (stereo not given) | 47.8 µM | –

Tested on: HOP-18 NSCLC
Assay: NCI-60 cell line screen, 48 h

Row | Structure (SMILES) | TGI
26 | Cc1ccc(NC(=O)C(=O)C(C(=O)c2ccc3ccccc3c2)C2OC(=O)c3ccccc32)cc1C (stereo not given) | 21.7 µM
27 | O=S1(=O)C[C@H](O)[C@H](O)CS1 | > 100 µM

Tested on: MOLT-4 leukemia
Assay: NCI-60 cell line screen, 48 h

Row | Structure (SMILES) | TGI | GI50
28 | Cc1ccc(NC(=O)C(=O)C(C(=O)c2ccc3ccccc3c2)C2OC(=O)c3ccccc32)cc1C (stereo not given) | 25.9 µM | –
29 | CCC[CH2][Sn]1([CH2]CCC)[O]N=C(c2ccccc2)C(c2ccccc2)[O]1 (stereo not given) | 6.52 µM | 1.81 µM
30 | O=S1(=O)C[C@H](O)[C@H](O)CS1 | > 100 µM | –
31 | N#Cc1nc(Nc2cccc3ccccc23)sc1N | > 100 µM | –
32 | COc1cc([C@H]2Oc3cc(O)c4c(=O)cc(-c5ccccc5)oc4c3O[C@@H]2CO)ccc1O | > 100 µM | –
33 | CCN(CC)CC1CCCCCCCCCCC1=O (stereo not given) | > 100 µM | –
34 | O=C1C(Cl)N(c2ccc(Cl)cc2)C1c1c[nH]c2ccccc12 (stereo not given) | 70 µM | –

Tested on: SW-620 colon
Assay: NCI-60 cell line screen, 48 h

Row | Structure (SMILES) | TGI | GI50
35 | Cc1ccc(NC(=O)C(=O)C(C(=O)c2ccc3ccccc3c2)C2OC(=O)c3ccccc32)cc1C (stereo not given) | 63.7 µM | –
36 | CCC[CH2][Sn]1([CH2]CCC)[O]N=C(c2ccccc2)C(c2ccccc2)[O]1 (stereo not given) | 2.27 µM | 0.989 µM
37 | O=S1(=O)C[C@H](O)[C@H](O)CS1 | > 100 µM | –
38 | N#Cc1nc(Nc2cccc3ccccc23)sc1N | > 100 µM | –
39 | CCN(CC)CC1CCCCCCCCCCC1=O (stereo not given) | > 100 µM | –
40 | O=C1C(Cl)N(c2ccc(Cl)cc2)C1c1c[nH]c2ccccc12 (stereo not given) | 68.8 µM | –

Tested on: CAKI-1 renal
Assay: NCI-60 cell line screen, 48 h

Row | Structure (SMILES) | TGI | GI50
41 | Cc1ccc(NC(=O)C(=O)C(C(=O)c2ccc3ccccc3c2)C2OC(=O)c3ccccc32)cc1C (stereo not given) | 43.7 µM | –
42 | CCC[CH2][Sn]1([CH2]CCC)[O]N=C(c2ccccc2)C(c2ccccc2)[O]1 (stereo not given) | 2.4 µM | 0.97 µM
43 | O=S1(=O)C[C@H](O)[C@H](O)CS1 | > 100 µM | –
